The values below come from patent US5093505A, “Novel heterocyclic compound, carcinostatic agent, and carcinoma controlling method” (Wakunaga Seiyaku Kabushiki Kaisha, priority 1989, dated 1992).

The nature of series [1]: Solubility of compound (1). It counts as physicochemical.
Series [2] is described as follows: in vivo. Set-up: species or system rats. As to conditions: rat, po.
The nature of series [3]: in vivo. Set-up: species or system mice. The settings on record: mouse, po.
In a further series the test system is HeLa cells. The series can be described thus: Anti-carcinogenesis-promoter action: inhibition of TPA-promoted phospholipid synthesis (32Pi uptake) in HeLa cells. It is filed as cell-based. The settings on record: Homo sapiens, read-out: Inhibition (%) of cell phospholipid synthesis promotion by TPA. Here is the method:
A sample (50 μg/ml) was added to HeLa cells on the second day of cultivation. After 24 hours, TPA (5×10^-8 M) and ^32 Pi (50 μci/culture) were added at the same time. After 4 hours, a phospholipid fraction was extracted to determine the radioactivity of ^32 Pi taken in the fraction.

Series [4] concerns mouse skin two-stage carcinogenesis. The series can be described thus: Inhibition of promotion stage of mouse skin in vivo two-stage carcinogenesis (DMBA/TPA). Also noted: species or system ICR female mice. As to conditions: 1 mg applied, twice a week, 1 μg TPA. As to the method:
A compound was examined whether it could inhibit the promotion stage of mouse skin in vivo two-stage carcinogenesis. More particularly, a group of 15 ICR female mice was tested by once applying 100 μg of DMBA as an initiator to the skin of each mouse for initiation of carcinogenesis and then applying a test solution (identified below) twice a week. Inhibition of carcinogenesis was examined during the test which continued for 18 weeks in total. The promoter used was TPA.
1 mg of compound (1) applied

For series [5], the system named is gastric carcinoma cells HGC-27. The series can be described thus: Inhibition against gastric carcinoma cells with time. It counts as cell-based. As to conditions: 25 μg/ml, number of cells with time. As to the method: In a dish having a diameter of 3.5 cm, about 2×10^4 gastric carcinoma cells HGC-27 were spread and cultured. After one day, compound (1) was added to the culture in a concentration of 25 μg/ml and the number of cells was counted with the lapse of time. The results are shown in FIG. 5 in which the number of cells is plotted relative to the culturing time.

Series [6] concerns gastric carcinoma cells HGC-27. The series can be described thus: Inhibition against gastric carcinoma cells in varying concentrations. It is filed as cell-based. The settings on record: two days. Here is the method: In a dish having a diameter of 3.5 cm, about 2×10^5 gastric carcinoma cells HGC-27 were spread and cultured. After one day, compound (1) was added to the culture in varying concentrations of 5, 10, 25, 50, and 75 μg/ml. The number of cells was counted after two days. The results are shown in FIG. 6 in which the number of cells is plotted relative to the concentration of compound (1).

Series [7] relates to pancreatic carcinoma cells PANC-1. Kind of series: Inhibition against other carcinoma cells: PANC-1. It counts as cell-based, human. As to conditions: PANC-1, 50 μg/ml. Here is the method:
(§1) Tested were three types of human carcinoma cells, pancreatic carcinoma cells PANC-1, cervical carcinoma cells HeLa, and neuroblastoma cells GOTO. For each type, about 2×10^5 cells were spread and cultured in a dish having a diameter of 3.5 cm. After one day, compound (1) was added to the culture in a concentration of 50 μg/ml. The number of cells was counted after two days.

Series [8] relates to cervical carcinoma cells HeLa. Kind of series: Inhibition against other carcinoma cells: HeLa. It counts as cell-based, human. The settings on record: 50 μg/ml. Here is the method:
as §1

Another series deals with neuroblastoma cells GOTO. The series can be described thus: Inhibition against other carcinoma cells: GOTO. It counts as cell-based, human. The settings on record: 50 μg/ml. As to the method:
as §1

[9] abbreviates: sample 50 μg/ml, TPA 5×10^-8 M, HeLa cells.
The mark [10] stands for this setting: Homo sapiens, 48 h, two days, read-out: Number of cells, Test group/Control.

Like-named read-outs stand apart in the source and are kept apart here.

With `CCCCCc1oc(C)c(OC)c(=O)c1O` [Compound (1), 3-hydroxy-6-methyl-5-methoxy-2-pentyl-4H-pyran-4-one], the “solubility in organic solvents” value in [1] (methanol, acetone, chloroform, hexane, and ethyl acetate) is “soluble”. For the same compound, the solubility in water result in series [1] (water) is “difficultly soluble”. Also, the LD50 in “in vivo [2]” and in “in vivo [3]” was not below 1000 mg/kg throughout. In addition, in the series with HeLa cells (setting [9]), the inhibition at 50 µg/mL came to 83%. Further, in series [4] (18th week (control 2.38)), the “average number of carcinomas per mouse” value is on record as 0.22. The “percentage of mice in which carcinomas developed” value in series [4] (18th week (control 50%)) was determined as 13%. The “inhibition of propagation of gastric carcinoma cells HGC-27” value in [5] is listed as “fully effective in inhibiting the propagation”. For the same compound, the “concentration dependence of inhibitory effect on gastric carcinoma cells HGC-27” value in series [6] (5, 10, 25, 50, and 75 μg/ml) is reported as “dependent on its concentration or dose”. In addition, the minimal effective concentration in series [6] (Homo sapiens, HGC-27, 48 h, 5 to 75 μg/ml, read-out: concentration with significant inhibitory effect on gastric carcinoma cells HGC-27) was not above 5 µg/mL. Also, the activity at 50 µg/mL in series [7] (setting [10]) was determined as 27.3%; in series [8] (setting [10]), 42%; with neuroblastoma cells GOTO (Homo sapiens, Neuroblastoma cell, 48 h, two days, read-out: Number of cells, Test group/Control), 44.3%. Moreover, the “Number of cells (×10^5), Test group” value in series [7] (two days (control 8.95)) is on record as 2.45 ×10^5; in [8] (two days (control 11.20)), 4.70 ×10^5; in the series with neuroblastoma cells GOTO (two days (control 10.95)) it was 4.85 ×10^5.

`CCCCCc1oc(C)c(OC)c(=O)c1OC` [Compound (2), 6-methyl-3,5-dimethoxy-2-pentyl-4H-pyran-4-one]: the inhibition at 50 µg/mL in the series on HeLa cells (setting [9]) was found to be 65.3%.

For the compound `CCCCCc1oc(C)c(OC)c(=S)c1O` [Compound (3), 3-hydroxy-6-methyl-5-methoxy-2-pentyl-4H-pyran-4-thione], the inhibition at 50 µg/mL with HeLa cells (setting [9]) came out at 75%.

As for `CCCCCC1=NC(C)=C(OC)C(=O)C1O` (stereo not drawn) [Compound (4), 3-hydroxy-6-methyl-5-methoxy 2-pentyl-4-pyridone], the inhibition at 50 µg/mL with HeLa cells (setting [9]) came out at 51.2%.

For the compound `CCCCCc1c(O)c(=O)c(OC)c(C)n1C` [Compound (5), 3-hydroxy-1,6-dimethyl-5-methoxy 2-pentyl-4-pyridone], the inhibition at 50 µg/mL in the series on HeLa cells (setting [9]) was 24.9%.

On to `CCCCCc1c(O)c(=S)c(OC)c(C)n1C` [Compound (7), 3-hydroxy-1,6-dimethyl-5-methoxy-2-pentyl 4-pyridinethione], for which, in the series on HeLa cells (setting [9]), the inhibition at 50 µg/mL was determined as 70.6%.

On to `Cc1occc(=O)c1O` [Compound (8), 3-hydroxy-2-methyl 4H-pyran-4-one], for which the inhibition at 50 µg/mL in the series on HeLa cells (setting [9]) came out at 3.1%.

Take `Cc1occc(=S)c1O` [Compound (9), 3-hydroxy-2-methyl-4H-pyran-4-thione]: the inhibition at 50 µg/mL in the series with HeLa cells (setting [9]) turned out to be 0%.

Consider `O=c1cc(C=Cc2ccccc2)occ1O` [Compound (10), 3-hydroxy-6-styryl-4H-pyran-4-one], for which the inhibition at 50 µg/mL in the series with HeLa cells (setting [9]) stood at 59.3%.

Consider `COc1ccc(C=Cc2cc(=O)c(O)co2)cc1` [Compound (11), 3-hydroxy-6-(p-methoxystyryl)-4H-pyran-4-one], for which the inhibition at 50 µg/mL in the series with HeLa cells (setting [9]) was found to be 72.2%.

Consider `O=c1cc(C=Cc2ccc(Cl)cc2)occ1O` [Compound (12), 3-hydroxy-6-(p-chlorostyryl)-4H-pyran-4-one], for which the inhibition at 50 µg/mL in the series on HeLa cells (setting [9]) is 90%.

Consider `O=c1cc(CO)occ1O` [Compound (13), 5-hydroxy-2-hydroxymethyl-4H-pyran-4-one], for which the inhibition at 50 µg/mL in the series with HeLa cells was 1.6%.
